Source: patent publication US20240390301A1, “COMBINATIONS OF PERIPHERAL 5-HT2A RECEPTOR ANTAGONISTS AND CENTRAL 5-HT2A RECEPTOR AGONISTS” (priority 2021, published 2024)
pKi: −log10 of the molar value. Like-named read-outs stand apart in the source and are kept apart here.

Experiments:
[1] = biological target: T1, 5-HT2A receptor (Homo sapiens, UniProt P28223); assay: 5-HT2A radioligand binding with [3H]ketanserin; conditions: for Ki: HEK293 stable cell line, 1 nM [3H]ketanserin, 1 h, 25° C., read-out: 5-HT2A Ki (nM) ([3H]ketanserin)
T1 construct: WuXi AppTec (Hong Kong) Limited (contract laboratory that ran the assay)
Experimental: The binding affinities of key peripheral 5-HT2A receptor antagonists, as well as reference 5-HT2A agonists, at the ketanserin binding site of the 5-HT2A receptor and the mesulergine binding site of the 5-HT2C receptor were determined in radioligand binding experiments.
Method. Affinity of the test compounds for the 5-HT2A and 5-HT2C receptors was determined in radioligand binding experiments with [^3H] ketanserin and [^3H] mesulergine, respectively, by WuXi AppTec (Hong Kong) Limited, using methods adapted from the literature and under conditions described in Table 1.

[2] = biological target: T2, 5-HT2C receptor (Homo sapiens, UniProt P28335); assay: biochemical; type: binding; conditions: for Ki: HEK293 stable cell line, 2 nM [3H]mesulergine, 1 h, 25° C., read-out: 5-HT2C Ki (nM) ([3H]mesulergine)
T2 construct: WuXi AppTec (Hong Kong) Limited (contract laboratory that ran the assay)
T2 sequence (P28335 33-458): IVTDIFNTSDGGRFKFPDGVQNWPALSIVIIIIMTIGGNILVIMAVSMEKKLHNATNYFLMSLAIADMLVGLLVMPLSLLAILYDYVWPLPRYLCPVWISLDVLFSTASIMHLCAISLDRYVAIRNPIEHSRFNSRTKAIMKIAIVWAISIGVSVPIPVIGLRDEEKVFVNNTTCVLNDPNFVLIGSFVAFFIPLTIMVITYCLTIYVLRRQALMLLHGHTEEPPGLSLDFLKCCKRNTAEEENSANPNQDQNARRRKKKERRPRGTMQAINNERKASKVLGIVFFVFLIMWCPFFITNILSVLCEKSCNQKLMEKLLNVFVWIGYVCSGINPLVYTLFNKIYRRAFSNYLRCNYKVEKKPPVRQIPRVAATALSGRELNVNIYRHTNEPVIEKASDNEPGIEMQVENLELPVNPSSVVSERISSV

[3] = in vitro
Experimental: Method 1. Aliquots of 50 μL loading matrix containing test compound (2 μM final incubation concentration) or control compound in triplicate were transferred to a Sample Collection Plate. The samples were matched with opposite blank buffer to obtain a final volume of 100 μL, with a volume ratio of matrix: Dialysis Buffer of 1:1 (v:v) in each well. Stop solution (200 ng/ml tolbutamide and 200 ng/mL labetalol in ACN) was added to these TO samples of test compound and control compound. The plate was sealed and shaken at 800 rpm for 10 min. An aliquot of 100 μL of the loading matrix containing test compound or control compound was transferred to the donor side of each dialysis well in triplicate and 100 μL of the Dialysis Buffer was loaded to the receiver side of the well. Then the plate was rotated at approximately 100 rpm in a humidified incubator with 5% CO2 at 37±1° C. for 4 hours. At the end of the dialysis, aliquots of 50 μL samples from the buffer side and matrix side of the dialysis device were taken into new 96-well plates (Sample Collection Plates). An equal volume of opposite blank matrix (buffer or matrix) in each sample was added to reach a final volume of 100 μL, with volume ratio of matrix: Dialysis Buffer of 1:1 (v:v) in each well. All samples were further processed by protein precipitation before LC-MS/MS analysis.
Method 2. Aliquots (200 μL) of positive controls and test compounds at 5 μM (triplicates) were separately added to the plasma chamber and […] of phosphate buffered saline (pH 7.4) was added to the buffer chamber of the inserts. After sealing the rapid equilibrium dialysis (RED) device with an adhesive film, dialysis was performed in an incubator at 37° C. with shaking at 100 RPM for 4 hours. Aliquots (50 μL) of warfarin and test compounds were added to four 0.5 mL micro fuse tubes. Two aliquots were frozen immediately (0-minute sample). The other two aliquots were incubated at 37° C. for 4 hours along with the RED device. Following dialysis, an aliquot of 50 μL was removed from each well (both plasma and buffer side) and diluted with an equal volume of opposite matrix (dialyzed with the other matrix) to nullify the matrix effect. Similarly, 50 μL of buffer was added to recovery and stability samples. An aliquot of 100 μL was used for LC-MS/MS analysis following protein precipitation with ACN containing internal standard.

[4] = Rat plasma stability; type: in vitro ADME; conditions: Method 2: 5 μM, 37° C.
Experimental: The results were used to confirm that the plasma protein binding results were not confounded by poor plasma stability.
Method 1. […] Plasma was centrifuged at 4,000 rpm for 5 min and any clots were remove.
Method 2. […]

[5] = in vivo; conditions: metabolite after 10 mg/kg SC of parent (sarpogrelate or Compound 14a)
Experimental: The pharmacokinetics of peripheral 5-HT2A antagonists were studied in the plasma (Tables 11 and 12) and brains (Table 13 and 14) of rats after subcutaneous (SC) dosing. The results were used to interpret the in vivo pharmacological results.
Animals. Male Sprague Dawley rats, aged 8-12 weeks. were used in these studies. Four rats were housed in each cage. […] Temperature and humidity were recorded by an auto-controlled data logger system. All animals were provided laboratory rodent diet and were fasted for 4 h pre-dose and 2 h post-dose. Reverse osmosis water treated with ultraviolet light was provided ad libitum. Animals were randomly assigned to treatment groups.
Drugs and Drug Administration. Test compounds were prepared as described above or commercially obtained. They were administered subcutaneously (SC) at a dose of 1 or 10 mg/kg (as indicated, calculated based on the free base) and at a volume of 5 mL/kg body weight.
Sample Collection and Bioanalysis. […] SC. […] For both studies, immediately after blood collection, plasma was harvested by centrifugation at 4,000 rpm for 10 min at 4° C. and samples were stored at −70±10° C. until bioanalysis. Following blood collection, animals were immediately sacrificed, the abdominal vena-cava was cut open, and the whole body was perfused from the heart using 10 mL of normal saline, and brain samples were collected from all animals. After isolation, brain samples were rinsed three times in ice-cold normal saline (for 5-10 seconds/rinse using ˜5-10 mL normal saline in disposable petri dish for each rinse) and dried on blotting paper. Brain samples were homogenized using ice-cold phosphate-buffered saline (pH 7.4). Total homogenate volume was three times the tissue weight. All homogenates were stored at −70±10° C. until bioanalysis. For bioanalysis, 25 μL aliquots of plasma/brain study samples or spiked plasma/brain calibration standards were added to individual pre-labeled micro-centrifuge tubes followed by 100 μL of an internal standard solution (glipizide, 500 ng/ml in acetonitrile) except for blanks, where 100 μL of acetonitrile was added. Samples were vortexed for 5 minutes and then centrifuged for 10 minutes at 4,000 rpm at 4° C. Following centrifugation, 100 μL of each clear supernatant was transferred to a 96-well plate and analyzed with a fit-for-purpose LC-MS/MS method, with authentic samples of each analyte used for calibration and identification.

[6] = Method 2: 3 times diluted homogenate, 37° C.
Experimental: Method 1. Pooled frozen rat brain homogenate was thawed in a water bath at 37° C. prior to the experiment. Using an Apricot automation workstation, 98 μL/well of blank brain homogenate or 100 mM PBS were added to all 96-well reaction plates (Blank, T0, T10, T30, T60, and T120). […] All reaction plates containing mixtures of compound and brain homogenate were incubated at 37° C. in a water bath for up to 120 minutes. At the end of incubation, 500 uL of stop solution (200 ng/mL tolbutamide and 200 ng/mL labetalol in ACN) was added to precipitate protein and mixed thoroughly for 20 minutes at 4° C. After centrifugation at 4,000 rpm and 4° C. for 20 minutes, an Apricot automation workstation was used to transfer 150 μL of supernatant from each reaction plate to its corresponding bioanaylsis plate, which was shaken for 10 minutes prior to LC-MS/MS analysis.
Method 2. Rat brain tissue homogenate samples were prepared by diluting one volume of whole rat brain tissue with two volumes of dialysis buffer (phosphate buffered saline pH 7.4-0.1 M sodium phosphate and 0.15 M sodium chloride) to yield 3 times diluted homogenate. Test compounds were spiked into 400 μL aliquots (n=3) of rat brain homogenate and the resulting mixtures were incubated at 37° C. […] An aliquot (100 μL) of each sample was transferred to a 96-well deep plate and analyzed by LC-MS/MS.

[7] = in vitro; design: fraction unbound at 4 h: dose or concentration left out as unconfirmed; conditions: rat, brain homogenate
Experimental: Various putative peripheral 5-HT2A receptor antagonists were tested for binding to rat brain homogenate via equilibrium dialysis, with the results summarized in Table 7.
Method 1. Rat brain homogenate was thawed in a water bath at room temperature and then incubated at 37° C. for 10 min before use. Aliquots of 50 μL of loading matrix containing test compound (2 μM final incubation concentration) or control compound in triplicate were transferred to a Sample Collection Plate. The samples were matched with opposite blank buffer to obtain a final volume of 100 μL with a volume ratio of matrix: Dialysis Buffer of 1:1 (v:v) in each well. The stop solution (200 ng/mL tolbutamide and 200 ng/ml labetalol in ACN) was immediately added to these T0 samples of test compound and control compound. The plate was sealed and shaken at 800 rpm for 10 min. T0 samples were stored at 2-8° C. pending further processing along with other post-dialysis samples. An aliquot of 100 μL of the loading matrix containing test compound or control compound was transferred to the donor side of each dialysis well in triplicate and 100 μL of the Dialysis Buffer was loaded to the receiver side of the well. Then the plate was rotated at approximately 100 rpm in a humidified incubator with 5% CO2 at 37±1° C. for 4 hours. At the end of the dialysis. aliquots of 50 μL from the buffer side and matrix side of the dialysis device were taken into new 96-well plates (Sample Collection Plates). An equal volume of opposite blank matrix (buffer or matrix) in each sample was added to reach a final volume of 100 μL, with a volume ratio of matrix: Dialysis Buffer of 1:1 (v:v) in each well. All samples were further processed by protein precipitation before LC-MS/MS analysis.
Method 2. Aliquots (200 μL) of test compounds and positive controls at […] in rat brain homogenate (triplicates) were added to the rapid equilibrium dialysis (RED) chamber of dialysis inserts. A 350 μL aliquot of dialysis buffer was added to the buffer chamber of the inserts. After sealing the RED device with an adhesive film, dialysis was conducted at 37° C. with shaking at 100 RPM for 4 hours. Following dialysis, an aliquot of 50 μL was removed from each well (brain homogenate and buffer) and diluted with an equal volume of opposite matrix to nullify the matrix effect. Similarly, buffer was added to recovery and stability samples. An aliquot of 100 μL was used for LC-MS/MS analysis following protein precipitation with ACN containing internal standard.

[8] = in vivo; type: in vivo, rat
Experimental: The ratio of free brain concentration to free plasma concentration was calculated at 0.167 h and 0.5 h post administration for each compound using the data presented in the above examples and the following formula.
A smaller value for the free brain: free plasma ratio indicates greater peripheral restriction and therefore, better suitability for the methods of the present disclosure.

[9] = 10 mg/kg PK data, quantified as metabolite in PK studies of sarpogrelate and Compound 14a

T1 sequence (P28223 whole entry): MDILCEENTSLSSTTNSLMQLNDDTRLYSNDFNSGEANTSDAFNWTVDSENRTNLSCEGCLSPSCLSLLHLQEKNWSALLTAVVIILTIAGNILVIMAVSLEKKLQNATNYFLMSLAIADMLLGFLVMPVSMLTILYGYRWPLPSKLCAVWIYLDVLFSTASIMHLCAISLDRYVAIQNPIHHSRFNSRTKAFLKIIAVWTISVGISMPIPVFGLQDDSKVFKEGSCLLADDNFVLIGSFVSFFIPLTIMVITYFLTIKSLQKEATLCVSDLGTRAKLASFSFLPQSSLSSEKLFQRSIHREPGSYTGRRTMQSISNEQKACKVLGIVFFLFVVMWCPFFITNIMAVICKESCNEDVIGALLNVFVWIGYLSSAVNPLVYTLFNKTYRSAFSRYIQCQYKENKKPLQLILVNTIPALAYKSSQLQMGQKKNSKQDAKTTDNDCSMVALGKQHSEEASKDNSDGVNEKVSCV

CCN(C)CCc1c[nH]c2cccc(O)c12 [Compound 4-HO-MET, 4-hydroxy-N-methyl-N-ethyltryptamine]
pKi [1]: 6.97

CCN(C)CCc1c[nH]c2ccc(F)cc12 [Compound 5-F-MET, 5-fluoro-N-methyl-N-ethyltryptamine]
pKi [1]: 6.85 | Ki [2]: 59 nM

CC(C)COc1ccc(CNC(=O)N(Cc2ccc(F)cc2)C2CCNCC2)cc1.Cl [Compound 7, 1-(4-fluorobenzyl)-3-(4-isobutoxybenzyl)-1-(piperidin-4-yl)urea hydrochloride]
fraction unbound at 4 h, 5 μM ([3]; rat, plasma, pH 7.4): 0.038 | % Remaining (120 minutes), rat plasma [4]: 96% | Mean brain concentration 0.167 h (ng/g), analyzed as metabolite ([5]; 0.167 h): BLQ | Mean brain concentration 0.5 h (ng/g), analyzed as metabolite ([5]; 0.5 h): BLQ | % Remaining (120 minutes), rat brain homogenate [6]: 69% | fraction unbound at 4 h [7]: 0.002

COc1cc(CC(C)N)c(OC)cc1I (stereo not drawn) [DOI, 4-iodo-2,5-dimethoxyamphetamine]
pKi [2]: 7.15

CCCc1cc(OC)c(CC(C)N)cc1OC (stereo not drawn) [DOPR, 2,5-dimethoxy-4-propylamphetamine]
Ki [1]: 17.6 nM | Ki [2]: 16.6 nM

COc1cc(CCN)cc(OC)c1OC [mescaline]
Ki [1]: 17400 nM | Ki [2]: > 1880 nM

COc1cccc(CCc2ccccc2OCC(O)CN(C)C)c1 (stereo not drawn) [sarpogrelate M1]
Mean % bound (rat plasma protein binding) ([3]; Method 2: RED, 5 μM, 4 hours, 37° C.): 97.2% | Free Brain:Free Plasma (0.167 h), metabolite [8, 9]: 0.52 | Free Brain:Free Plasma (0.5 h), metabolite [8, 9]: 1.31 | Peripheral restriction / brain penetration ([8]; from free brain:free plasma ratios): substantial brain penetration | % Remaining (120 minutes), rat plasma [4]: 94% | Mean brain concentration 0.167 h (ng/g), analyzed as metabolite ([5]; 0.167 h): 32.7 ng/g | Mean brain concentration 0.5 h (ng/g), analyzed as metabolite ([5]; 0.5 h): 97.4 ng/g | Mean plasma concentration 0.167 h (ng/mL), analyzed as metabolite ([5]; plasma, 0.167 h): 54.1 ng/mL | Mean plasma concentration 0.5 h (ng/mL), analyzed as metabolite ([5]; plasma, 0.5 h): 63.6 ng/mL | % Remaining (120 minutes), rat brain homogenate [6]: 84%
